Assay results from US20210038559A1, “CANNABINOIDS AND DERIVATIVES FOR PROMOTING IMMUNOGENICITY OF TUMOR AND INFECTED CELLS” (priority 2018, published 2021).
Structures can show the parent of a compound that is named as a salt.

tested on: MHC-I expression by COLO 205 cells; assay: cells; assay type: cell-based, human; conditions: not given
Method: A panel of synthetic cannabinoids (Cayman Chemical, #9002891) was tested for MHC class I-inducing capability in COLO 205 cells as described above. COLO 205 cells were treated with the compounds at a concentration of 35 μM and evaluated for cell surface MHC class I expression after 48 hours. Cells were harvested, stained with MHC-I mAb W6/32 (Thermo Fisher). MHC-I expression was determined by flow cytometry.

Molecule	Induction Fold [Fold]
CS(=O)(=O)O.Cc1c(C(=O)c2cccc3ccccc23)c2cccc3c2n1C(CN1CCOCC1)CO3 (centres unmarked) [Example 376, [2,3-dihydro-5-methyl-3-(4-morpholinylmethyl)pyrrolo[1,2,3-de]-1,4-benzoxazin-6-yl]-1-naphthalenyl-methanone, methanesulfonate]	0.32
CS(=O)(=O)O.Cc1c(C(=O)c2cccc3ccccc23)c2cccc3c2n1[C@H](CN1CCOCC1)CO3 [Example 379, [(3R)-2,3-dihydro-5-methyl-3-(4-morpholinylmethyl)pyrrolo[1,2,3-de]-1,4-benzoxazin-6-yl]-1-naphthalenyl-methanone, methanesulfonate]	0.21
(1-butyl-6-methoxy-1H-indol-3-yl)-1-naphthalenyl-methanone [Example 107]	2.39
(1-ethyl-1H-indol-3-yl)-1-naphthalenyl-methanone [Example 272]	1.53
(1-heptyl-5-phenyl-1H-pyrrol-3-yl)-1-naphthalenyl-methanone [Example 212]	1.83
(1-hexyl-1H-indol-3-yl)-1-naphthalenyl-methanone [Example 140]	2.19
(1-hexyl-1H-pyrrol-3-yl)-1-naphthalenyl-methanone [Example 72]	2.68
(1-hexyl-5-phenyl-1H-pyrrol-3-yl)-1-naphthalenyl-methanone [Example 82]	2.54
(2-ethyl-1-pentyl-1H-indol-3-yl)-1-naphthalenyl-methanone [Example 154]	2.11
[1-(5-fluoropentyl)-6-nitro-1H-indol-3-yl]-1-naphthalenyl-methanone [Example 280]	1.49
[2-methyl-1-(1-methylhexyl)-1H-indol-3-yl]-1-naphthalenyl-methanone [Example 137]	2.22
[5-(2-chlorophenyl)-1-pentyl-1H-pyrrol-3-yl]-1-naphthalenyl-methanone [Example 63]	2.77
[5-(3-fluorophenyl)-1-pentyl-1H-pyrrol-3-yl]-1-naphthalenyl-methanone [Example 109]	2.37

same assay, conditions: Homo sapiens, COLO 205, 48 h, MHC-I expression, COLO 205 cells, compounds at 35 μM, 48 hours, flow cytometry (W6/32); read-out: Induction Fold

Molecule	fold induction at 35 µM
CC(C)C(C)n1cc(C(=O)c2ccc3ccccc3c2)c2ccccc21 (centres unmarked) [Example 342, (1-(3-methylbutan-2-yl)-1H-indol-3-yl)(naphthalen-2-yl)methanone]	1.17
CC(C)[C@H](NC(=O)c1c2ccccc2nn1CC1CCCCC1)C(N)=O [Example 343, (S)-N-(1-amino-3-methyl-1-oxobutan-2-yl)-2-(cyclohexylmethyl)-2H-indazole-3-carboxamide]	1.14
CC(C)[C@H](NC(=O)c1cc(-c2ccc(F)cc2)n(CC2CCCCC2)n1)C(N)=O [Example 344, (S)-N-(1-amino-3-methyl-1-oxobutan-2-yl)-1-(cyclohexylmethyl)-5-(4-fluorophenyl)-1H-pyrazole-3-carboxamide]	1.14
CC(C)(O)CCn1c(=O)n(C(=O)N[C@H](C(N)=O)C(C)(C)C)c2ccccc21 [Example 345, N-[(1S)-1-(aminocarbonyl)-2,2-dimethylpropyl]-2,3-dihydro-3-(3-hydroxy-3-methylbutyl)-2-oxo-1H-benzimidazole-1-carboxamide]	1.13
CCCCCn1cc(C(=O)c2cccc3c(OC)cccc23)c2ccccc21 [Example 346, (5-methoxynaphthalen-1-yl)(1-pentyl-1H-indol-3-yl)methanone]	1.13
COc1ccc(N2CCNCC2)cc1 [Example 347, 1-(4-Methoxyphenyl) piperazine (hydrochloride)]	1.12
CNCC(C)Cc1ccc2c(c1)OCO2 (stereo not drawn) [Example 348, N,β-dimethyl-1,3-benzodioxole-5-propanamine, monohydrochloride]	1.11
CCCCCn1cc(C(=O)Nc2ccc3ccccc3c2)c2ccccc21 [Example 349, N-2-naphthalenyl-1-pentyl-1H-indole-3-carboxamide]	1.1
CCC(C)n1cc(C(=O)c2ccc3ccccc3c2)c2ccccc21 (centres unmarked) [Example 350, (1-(sec-butyl)-1H-indol-3-yl)(naphthalen-2-yl)-methanone]	1.08
CCCCCn1cc(C(=O)NC(C)(C)c2ccccc2)c2ccccc21 [Example 351, N-(1-methyl-1-phenylethyl)-1-pentyl-1H-indole-3-carboxamide]	1.07
COC(=O)[C@@H](NC(=O)c1cn(CCCCCF)c2ccccc12)C(C)C [Example 354, N-[[1-(5-fluoropentyl)-1H-indol-3-yl]carbonyl]-L-valine, methyl ester]	1.05
CC(C)(NC(=O)c1cn(CCCCCF)c2ccccc12)c1ccccc1 [Example 356, 1-(5-fluoropentyl)-N-(1-methyl-1-phenylethyl)-1H-indole-3-carboxamide]	1.03
O=C(NCC1CC1)c1cn(CCCCCF)c2ccccc12 [Example 357, N-(cyclopropylmethyl)-1-(5-fluoropentyl)-1H-indole-3-carboxamide]	1.03
CCCC(F)Cn1cc(C(=O)c2ccc(C)c3ccccc23)c2ccccc21 (centres unmarked) [Example 359, (1-(2-fluoropentyl)-1H-indol-3-yl)(4-methylnaphthalen-1-yl)methanone]	1
CCCCCCC(C)(C)c1cc(O)c2c(c1)OC(C)(C)[C@H]1CC=C(CO)C[C@H]21 [Example 360, 3-(1,1-dimethylheptyl)-6aS,7,10,10aS-tetrahydro-1-hydroxy-6,6-dimethyl-6H-dibenzo[b,d]pyran-9-methanol]	0.96
CCCC(C)n1cc(C(=O)c2ccc3ccccc3c2)c2ccccc21 (centres unmarked) [Example 362, naphthalen-2-yl(1-(pentan-2-yl)-1H-indol-3-yl)methanone]	0.95
CCOc1ccc(Cc2nc3cc(C(=O)N(CC)CC)ccc3n2CC2CCCCC2)cc1 [Example 363, 1-(cyclohexylmethyl)-2-[(4-ethoxyphenyl)methyl]-N,N-diethyl-1H-benzimidazole-5-carboxamide]	0.92
CCCCCn1cc(C(=O)NC23CC4CC(CC(C4)C2)C3)c(=O)c2cc(C(C)C)ccc21 [Example 364, 1,4-dihydro-6-(1-methylethyl)-4-oxo-1-pentyl-N-tricyclo[3.3.1.1^3, 7]dec-1-yl-3-quinolinecarboxamide]	0.89
CCCCCCC(C)(C)c1ccc([C@H]2C[C@@H](O)CC[C@@H]2CCCO)c(O)c1 [Example 365, 2-((1S,2S,5S)-5-hydroxy-2-(3-hydroxypropyl)cyclohexyl)-5-(2-methyloctan-2-yl)phenol]	0.89
CCCCCn1cc(-c2nc(CN(CCOC)C(C)C)cs2)c2ccccc21 [Example 369, N-(2-methoxyethyl)-N-(1-methylethyl)-2-(1-pentyl-1H-indol-3-yl)-4-thiazolemethanamine, monohydrochloride]	0.85
CCCCn1cc(C(=O)c2ccc(OC)c3ccccc23)c2ccccc21 [Example 370, (1-butyl-1H-indol-3-yl)(4-methoxy-1-naphthalenyl)-methanone]	0.82
CCCCCCC(C)(C)c1ccc([C@H]2CCC[C@@H](O)C2)c(O)c1 [Example 371, 2[(1S,3R)-3-hydroxycyclohexyl]-5-(2-methyloctan-2-yl)phenol]	0.78
CCCCCn1c(C)c(C(=O)c2ccc(OC)c3ccccc23)c2ccccc21 [Example 372, (4-methoxy-1-naphthalenyl)(2-methyl-1-pentyl-1H-indol-3-yl)-methanone]	0.6
O=C(Nc1cccc2ccccc12)c1cn(CCCCCF)c2ccncc12 [Example 373, 1-(5-fluoropentyl)-N-(naphthalen-1-yl)-1H-pyrrolo[3,2-c]pyridine-3-carboxamide]	0.49
C=C(C)[C@@H]1CCC(C)=C[C@H]1C1=C(O)C(=O)C(CCCCC)=CC1=O [Example 377, 3-hydroxy-2-[(1R,6R)-3-methyl-6-(1-methylethenyl)-2-cyclohexen-1-yl]-5-pentyl-2,5-cyclohexadiene-1,4-dione]	0.3
CCCCCCC(C)(C)c1cc(O)c2c(c1)OC(C)(C)[C@@H]1CC=C(CO)C[C@@H]21 [Example 378, 3-(1,1′-dimethylheptyl)-6aR,7,10,10aR-tetrahydro-1-hydroxy-6,6-dimethyl-6H-dibenzo[b,d]pyran-9-methanol]	0.21

same assay, conditions: Homo sapiens, COLO 205, 48 h, read-out: Induction Fold

Molecule	fold induction at 35 µM
CN1CCCCC1Cn1cc(C(=O)C2C(C)(C)C2(C)C)c2ccccc21 (centres unmarked) [Example 368, [1-[(1-methyl-2-piperidinyl)methyl]-1H-indol-3-yl](2,2,3,3-tetramethylcyclopropyl)-methanone]	0.85

same assay, conditions: MHC-I expression, COLO 205 cells, compounds at 35 μM, 48 hours, flow cytometry (W6/32)

Molecule	Induction Fold [Fold]
CC[C@H](C)[C@H](NC(=O)c1c2ccccc2nn1CCCCCF)C(N)=O [Example 355, N-(1-amino-3S-methyl-1-oxopentan-2S-yl)-2-(5-fluoropentyl)-2H-indazole-3-carboxamide]	1.05
O=C(OC12CC3CC(CC(C3)C1)C2)c1nn(CCCCCF)c2ccccc12 [Example 358, (3s,5s,7s)-adamantan-1-yl 1-(5-fluoropentyl)-1H-indazole-3-carboxylate]	1.02
CCCCCn1cc(-c2nc(CN(CC)CC)cs2)c2ccccc21 [Example 366]	0.89
CC1=CC[C@@H]2[C@@H](C1)c1c(O)cc(C(C)(C)c3ccccc3)cc1OC2(C)C [Example 367, 6aR,7,10,10aR-tetrahydro-6,6,9-trimethyl-3-(1-methyl-1-phenylethyl)-6H-dibenzo[b,d]pyran-1-ol]	0.87
